# Test: physchem
row,solubility [µg/mL],Structure (SMILES)
1,< 100,CN1C(C(=O)Nc2ccccn2)=C(O)c2ccccc2S1(=O)=O [piroxicam]
2,< 100,O=c1[nH]c2ccccc2n1CCCN1CCC(n2c(=O)[nH]c3cc(Cl)ccc32)CC1 [domperidone]
